The source of these data is US12678440B2, “Compositions and methods for treating misfolded protein ocular disorders” (CASE WESTERN RESERVE UNIVERSITY, priority 2020, dated 2026).

The test system of series [1] is Rho^P23H/+ mice. The series can be described thus: Retinal immunohistochemistry (IHC) after intravitreal injection. Format: in vivo, mouse. The protocol:
(§1) The C57BL/6J (Rho^+/+) mice and Rho^P23H/P23H mice were purchased from Jackson Laboratory (Stock No 017628) generated by Dr. Krzysztof Palczewski's lab. The Rho^P23H/P23H mice were crossed with wild-type C57BL/6J mice to produce P23H heterozygotes mice. Genotyping for all strains was conducted as guided using forward and reverse primers: 1) GGTAGCACTGTTGGGCATCT (SEQ ID NO: 5); and 2) GACCCCACAGAGACAAGCTC (SEQ ID NO: 6), respectively. The PCR products at 573 and 399 bp indicated the P23H knock-in mutant and WT allele of the RHO gene, respectively. Mice were bred and housed under standard 12-h light/12-h dark conditions in the University of Pittsburgh animal facility. All animal experiments were approved by the University of Pittsburgh Institutional Animal Care and Use Committee (IACUC) following the guide for the Animal Welfare Act and Regulations.
(§2) To determine the effect of compounds on retina in vivo, we administered compounds directly into the vitreous space. Briefly, mice were treated with 1% tropicamide eye drops (Akorn, Lake Forest, IL USA) to dilate the pupils and then they were anesthetized with an intraperitoneal injection of ketamine (Henry Schein, Dublin, OH USA) at 80 mg/kg body weight (bw) and xylazine (Bimeda, Le Sueur, MN USA) at 7 mg/kg bw. One drop of 0.5% tetracaine hydrochloride (TCI, Tokyo, Japan) was applied to mouse eyes as topical anesthetics before injection. Eyes were kept lubricated during the injections by a 0.3% hypromellose eye gel (Alcon, Fort Worth, TX USA). A heating pad was used for maintaining body temperature. Mice were positioned to expose the sclera of the eyes. A 30-gauge needle (Medline, Northfield, IL USA) was used to puncture a hole through sclera behind limbus at a 45° angle. A 33-gauge blunt-end needle (Hamilton, Reno, NV USA) was used to be inserted into the hole and a total of 0.5 μL of sterile PBS or MTX in PBS was slowly injected into the posterior chamber and the needle was kept in place for about 30 seconds before a slow removal of the needle. A small amount of Triantibiotic ointment (Medline, Northfield, IL USA) was applied on the injection site to prevent infection. A single IVI with 25 or 100 pmol of MTX was administered to one eye of each Rho^P23H/+ mice at postnatal day (PND) 15, and PBS was injected to the other eye as vehicle control. We also performed four weekly IVIs of MTX or PBS to the second group of Rho^P23H/+ mouse eyes at PND 15, 22, 29 and 36.
Eyes were enucleated by a pair of curved-tip forceps and fixed in the freshly prepared 4% paraformaldehyde for 2 h. Fixed eyes were dehydrated sequentially in 5, 10, 20 and 40% sucrose solutions in PBS each for 30 min at room temperature. Finally, eyes were incubated in a mixture of 40% sucrose in PBS and O.C.T. compound (FisherScientific, Houston, TX USA) at 1:1 volume ratio for overnight at 4° C. before they are embedded in the same mixed solution in an orientation-specific manner and frozen in liquid nitrogen-bathed isobutene. Twelve-micron retinal cross-sections were made by a microtome at −16° C. and those containing the optic nerve head were applied onto a SuperFrost glass slide (FisherScientific, Houston, TX USA). These slides were then used for IHC. After rehydration and permeabilization in PBST for 15 min, retinal sections were incubated in 5% goat serum for 30 min, and then they were incubated with PBS containing the mouse 1D4 anti-rhodopsin antibody (20 μg/mL) for 2 hours at room temperature in a humidified chamber. The retinal sections were washed with PBST for four times and incubated with Cy3 conjugated goat anti-mouse antibody (5 μg/mL) for 1 hour at room temperature. Hoechst 33342 (1:10000 dilution) was applied for 5 min to stain the nuclei. Sections were mounted with the ProlongGold mounting solution (ThermoFisher, Waltham, MA USA). Immunofluorescence images were then taken by a fluorescence microscope for low-magnification images and a confocal microscope for high-magnification images. […]

The test system of series [2] is Rho^P23H/+ mice. Kind of series: Electroretinogram (ERG) after intravitreal injection. Format: in vivo, mouse. The method, then:
as §1, §2
ERG was performed using the Celeris system (Diagnosys, Lowell, MA, USA), as described previously. Before each test, mice were kept in the dark overnight. Pupils were dilated with 1% tropicamide (Akorn, Lake Forest, IL, USA). Mice were anesthetized with an intraperitoneal injection of ketamine at 80 mg/kg bw and xylazine at 7 mg/kg bw. Eyes were lubricated by a 0.3% hypromellose eye gel (Alcon, Fort Worth, TX, USA). A heating pad was used to maintain body temperature at 37° C. Scotopic ERG responses of dark-adapted eyes to ten flashes from 0.01 cd·s/m^2 to 30 cd·s/m^2 were recorded and averaged from three sweeps per flash intensity with inter-sweep intervals of 10 to 30 s. After exposed to 10 cd/m^2 illumination for 5 min, the photopic ERG responses were recorded from the light-adapted eyes in respond to flashes from 0.01 cd·s/m^2 to 30 cd·s/m^2 in addition to a 10 cd/m^2 background light. P-values were calculated by a two-way ANOVA to determine the statistical significance between the response amplitudes in the MTX-treated and vehicle (PBS) group. Factor 1, treatment condition; and factor 2, flash intensity.

[3] abbreviates: four IVIs of 25 pmol, PND 46, vs PBS, superior side, not inferior side.
[4] abbreviates: single IVI 25 pmol, PND 33, vs PBS, superior side, not inferior side.
[5] abbreviates: single IVI 25 pmol at PND 15, ERG at PND 32, vs PBS or non-treated.
Where [6] appears, read: single IVI 100 pmol at PND 15, ERG at PND 32.

As to `CN(Cc1cnc2nc(N)nc(N)c2n1)c1ccc(C(=O)N[C@@H](CCC(=O)O)C(=O)O)cc1` [CL-009, N-[4-[[(2,4-diamino-6-pteridinyl)methyl]methylamino]benzoyl]-L-glutamic acid], the “retinal degeneration caused by MTX” value with Rho^P23H/+ mice [1] (100 pmol IVI, Rho^P23H/+ mice) is listed as “did not see obvious retinal degeneration”. Also, in the series with Rho^P23H/+ mice [1] (setting [3]), the “level of rhodopsin in the ONL (IHC)” value was “lower”, the “levels of rhodopsin in the OS (IHC)” value is “significantly higher” and the “nucleus number in the ONL” value is on record as “higher”. In the series with Rho^P23H/+ mice [1] (setting [4]), the “rhodopsin in the OS (IHC)” value is “significant increase” and the “total rhodopsin level in retinae (IHC)” value is reported as “significant increase”. The ONL nucleus number result in the series on Rho^P23H/+ mice [1] (single IVI, PND 33, either side of the retina) was “No change”. Besides, the “multi-flash scotopic and photopic b-waves” value in the series on Rho^P23H/+ mice [2] (four weekly IVIs from PND 15, ERG at PND 44, vs PBS) was “significantly increased”. Also, in the series with Rho^P23H/+ mice [2] (four weekly IVIs of 100 pmol, vs PBS, at higher flash intensities), the photopic b-waves result was “higher”. In addition, in the series with Rho^P23H/+ mice [2] (setting [5]), the “multi-flash scotopic ERG a- and b-waves” value is “significantly higher”; the “photopic ERG responses” value is recorded as “higher”. In the series with Rho^P23H/+ mice [2] (setting [6]), the “multi-flash scotopic ERG a- and b-waves” value is “no effect”; the “photopic ERG responses” value is reported as “did not show any effects”. The “ratio of scotopic and photopic b- to a-wave amplitudes” value in the series with Rho^P23H/+ mice [2] (single IVI 25 or 100 pmol) is “not affected”.
